Tests used:
human MR = biological target: T1, human MR (Homo sapiens, UniProt P08235); assay: Mineralocorticoid Receptor Binding Assay ([3H]-aldosterone); conditions: [3H]-aldosterone binding, human MR expressed in Sf9 cells; read-out: MR Ki
T1 construct: The full length human MR gene is cloned from a human kidney or human brain cDNA library; His tag from the pAcHLT vector (own knowledge); made in house; host or cells: Sf9 insect cells (baculovirus, pAcHLT transfer vector)
T1 sequence (P08235 1-984): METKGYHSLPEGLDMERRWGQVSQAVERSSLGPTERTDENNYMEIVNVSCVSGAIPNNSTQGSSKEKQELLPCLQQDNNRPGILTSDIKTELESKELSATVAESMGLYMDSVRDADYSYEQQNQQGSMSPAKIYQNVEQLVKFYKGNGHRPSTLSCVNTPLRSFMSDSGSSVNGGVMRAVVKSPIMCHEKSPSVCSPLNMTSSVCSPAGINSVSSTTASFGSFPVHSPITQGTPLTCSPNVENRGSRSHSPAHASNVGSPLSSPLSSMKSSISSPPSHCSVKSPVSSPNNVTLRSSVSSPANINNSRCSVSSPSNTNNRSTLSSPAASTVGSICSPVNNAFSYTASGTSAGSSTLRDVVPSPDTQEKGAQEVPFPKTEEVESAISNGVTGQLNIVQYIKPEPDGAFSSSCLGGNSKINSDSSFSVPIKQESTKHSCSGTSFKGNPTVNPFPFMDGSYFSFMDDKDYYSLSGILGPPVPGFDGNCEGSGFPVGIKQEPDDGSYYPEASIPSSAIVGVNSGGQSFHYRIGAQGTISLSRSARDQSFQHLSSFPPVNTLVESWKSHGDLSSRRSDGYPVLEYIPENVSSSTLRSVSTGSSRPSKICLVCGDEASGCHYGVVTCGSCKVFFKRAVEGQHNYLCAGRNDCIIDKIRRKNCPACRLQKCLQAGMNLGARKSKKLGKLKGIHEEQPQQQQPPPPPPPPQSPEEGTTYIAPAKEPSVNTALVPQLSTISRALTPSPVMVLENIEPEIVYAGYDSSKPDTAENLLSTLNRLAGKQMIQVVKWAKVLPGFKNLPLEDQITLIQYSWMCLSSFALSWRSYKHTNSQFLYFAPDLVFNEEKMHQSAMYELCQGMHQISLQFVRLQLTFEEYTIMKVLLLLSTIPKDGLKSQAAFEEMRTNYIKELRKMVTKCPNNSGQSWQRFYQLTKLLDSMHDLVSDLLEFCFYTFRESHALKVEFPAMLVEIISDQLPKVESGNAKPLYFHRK
In short: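 Lysate supernatant of Sf9 cells expressing full-length human MR (20-25 μg protein) was incubated with 0.5 nM [3H]-aldosterone and test compound in molybdate/Tris/phosphate/glycerol buffer, pH 7.5, ~16 h at 4 °C. Bound ligand was filtered and counted by scintillation; IC50 is the concentration halving [3H]-aldosterone binding.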

glucocorticoid receptor = biological target: T2, glucocorticoid receptor (Homo sapiens, UniProt P04150); assay: Glucocorticoid Receptor Binding Assay ([3H]-dexamethasone, A549 cell extract); conditions: [3H]-dexamethasone binding, read-out: GR Ki
T2 construct: containing 50-200 ug of A549 cell extract and 1.86 nM [^3H]-dexamethasone; host or cells: A549 human lung epithelial cells (sonicated cell extract)
T2 sequence (P04150 1-777): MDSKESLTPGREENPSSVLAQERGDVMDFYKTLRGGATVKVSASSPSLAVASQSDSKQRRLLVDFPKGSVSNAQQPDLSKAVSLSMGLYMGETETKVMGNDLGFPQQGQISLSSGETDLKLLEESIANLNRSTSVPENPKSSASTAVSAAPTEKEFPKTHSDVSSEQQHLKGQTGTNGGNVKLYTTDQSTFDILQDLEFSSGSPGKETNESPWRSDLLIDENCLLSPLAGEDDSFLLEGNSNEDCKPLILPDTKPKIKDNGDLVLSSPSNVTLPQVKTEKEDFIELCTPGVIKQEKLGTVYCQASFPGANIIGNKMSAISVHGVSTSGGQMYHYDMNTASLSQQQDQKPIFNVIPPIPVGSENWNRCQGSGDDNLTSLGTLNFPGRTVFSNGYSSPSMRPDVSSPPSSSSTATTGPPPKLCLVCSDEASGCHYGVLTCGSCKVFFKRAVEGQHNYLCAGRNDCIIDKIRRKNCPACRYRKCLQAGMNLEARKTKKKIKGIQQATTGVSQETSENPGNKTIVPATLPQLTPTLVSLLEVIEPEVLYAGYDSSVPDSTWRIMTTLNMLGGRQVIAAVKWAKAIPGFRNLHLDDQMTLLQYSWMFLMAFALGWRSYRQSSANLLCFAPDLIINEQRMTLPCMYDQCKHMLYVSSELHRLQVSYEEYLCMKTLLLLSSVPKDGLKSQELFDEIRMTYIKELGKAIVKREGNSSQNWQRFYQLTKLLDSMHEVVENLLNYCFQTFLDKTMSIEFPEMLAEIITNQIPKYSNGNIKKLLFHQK
In short: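 A549 cell extract (50–200 ug) incubated with 1.86 nM [3H]-dexamethasone and test compound for 16 h at 4 °C in Tris-HCl pH 7.2 buffer with glycerol and molybdate. Unbound radioligand removed by dextran-coated charcoal, then supernatant bound counts measured by scintillation.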

SMILES	Ki (human MR) [nM]	Ki (glucocorticoid receptor) [nM]
CS(=O)(=O)Nc1cccc(C=C2c3ccccc3CCc3c2cccc3-c2ccccc2)c1 [Example 411]	< 500	< 500
CS(=O)(=O)Nc1cccc(C=C2c3ccccc3CCc3cc(-c4ccccc4)ccc32)c1 [Example 412]	< 500	< 1000
O=C(Nc1cccc(/C=C2\c3ccccc3CCc3cc(Cl)ccc32)c1)C(F)(F)F [Example 413]	< 500	< 500
O=C(Nc1cccc(/C=C2/c3ccccc3CCc3cc(Cl)ccc32)c1)C(F)(F)F [Example 414]	< 500	< 500
CS(=O)(=O)Nc1cccc(/C=C2/c3ccccc3CCc3cc(C(N)=O)ccc32)c1 [Example 415]	< 500	< 500
CS(=O)(=O)Nc1cccc(/C=C2\c3ccccc3CCc3cc(C(N)=O)ccc32)c1 [Example 416]	< 500	< 500
CS(=O)(=O)Nc1cccc(/C=C2\c3ccccc3CCc3cc(C(=O)O)ccc32)c1 [Example 417]	< 500	< 500
CS(=O)(=O)Nc1cccc(/C=C2/c3ccccc3CCc3cc(C(=O)O)ccc32)c1 [Example 418]	< 500	< 1000
COc1ccc2c(c1)CCc1cc(C)ccc1C2=Cc1cccc(NS(C)(=O)=O)c1 [Example 419]	< 500	< 500
Cc1ccc2c(c1)CCc1cc(F)ccc1C2=Cc1cccc(NS(C)(=O)=O)c1 [Example 420]	< 500	< 500
Cc1ccc2c(c1)CCc1cc(F)ccc1/C2=C\c1cccc(NS(C)(=O)=O)c1 [Example 421]	< 500	< 500
Cc1ccc2c(c1)CCc1cc(F)ccc1/C2=C/c1cccc(NS(C)(=O)=O)c1 [Example 422]	< 500	< 500
COc1ccc2c(c1)CCc1cc(C)ccc1/C2=C\c1cccc(NS(C)(=O)=O)c1 [Example 423]	< 500	< 500
COc1ccc2c(c1)CCc1cc(C)ccc1/C2=C/c1cccc(NS(C)(=O)=O)c1 [Example 424]	< 500	< 500
CS(=O)(=O)Nc1cccc(C=C2c3ccccc3CCc3cc(OCCN4CCOCC4)ccc32)c1 [Example 427]	< 500	< 10000
O=c1[nH]c2cc(C=C3c4ccc(F)cc4CCc4cc(F)ccc43)ccc2n1CCN1CCOCC1 [Example 436, 5-(2,8-difluoro-10,11-dihydro-dibenzo[a,d]cyclohepten-5-ylidenemethyl)-1-(2-morpholin-4-yl-ethyl)-1,3-dihydro-benzoimidazol-2-one]	< 500	< 1000
C(=C1c2ccccc2CCc2ccccc21)c1cn[nH]c1 [Example 439]	< 500	< 500
Nc1nc2ccc(C=C3c4ccccc4CCc4ccccc43)cc2s1 [Example 442]	< 500	< 500
C(=C1c2ccccc2CCc2ccccc21)c1ccc2nc[nH]c2c1 [Example 443]	< 500	< 10000
Nc1n[nH]c2cc(C=C3c4ccccc4CCc4ccccc43)ccc12 [Example 444]	< 500	< 500
Nc1nc2ccc(C=C3c4ccccc4CCc4ccccc43)cc2[nH]1 [Example 445]	< 500	< 10000
CS(=O)(=O)Nc1csc(C=C2c3ccccc3CCc3ccccc32)n1 [Example 446]	< 500	< 500
O=C1Cc2ccc(C=C3c4ccccc4CCc4ccccc43)cc2N1 [Example 447]	< 500	< 500

SMILES	Ki (human MR) [nM]	Ki (glucocorticoid receptor) [nM]
O=c1[nH]c2ccc(/C=C3\c4ccccc4CCc4cc(F)ccc43)cc2[nH]1 [Example 448]	< 500	< 10000
O=c1[nH]c2ccc(/C=C3/c4ccccc4CCc4cc(F)ccc43)cc2[nH]1 [Example 449]	< 500	< 10000
O=c1[nH]c2cc(/C=C3/c4ccccc4CCc4cc(F)ccc43)ccc2o1 [Example 450]	< 500	< 500
O=c1[nH]c2cc(/C=C3\c4ccccc4CCc4cc(F)ccc43)ccc2o1 [Example 451]	< 500	< 10000
O=c1[nH]c2ccc(/C=C3/c4ccccc4CCc4cc(C(F)F)ccc43)cc2[nH]1 [Example 452]	< 500	< 1000
O=c1[nH]c2ccc(/C=C3\c4ccccc4CCc4cc(C(F)F)ccc43)cc2[nH]1 [Example 453]	< 500	< 1000
Cn1c(=O)[nH]c2cc(C=C3c4ccccc4CCc4ccccc43)ccc21 [Example 454]	< 500	< 500
N#Cc1ccc2c(c1)CCc1ccccc1/C2=C/c1ccc2[nH]c(=O)[nH]c2c1 [Example 455]	< 500	< 10000
N#Cc1ccc2c(c1)CCc1ccccc1/C2=C\c1ccc2[nH]c(=O)[nH]c2c1 [Example 456]	< 500	< 10000
O=c1[nH]c2cc(C=C3c4ccc(F)cc4CCc4cc(F)ccc43)ccc2s1 [Example 457]	< 500	< 500
O=c1[nH]c2cc(C=C3c4ccc(F)cc4CCc4cc(F)ccc43)ccc2o1 [Example 458]	< 500	< 500
Cn1c(=O)[nH]c2cc(C=C3c4ccc(F)cc4CCc4cc(F)ccc43)ccc21 [Example 459]	< 500	< 1000
Nc1n[nH]c2cc(C=C3c4ccc(F)cc4CCc4cc(F)ccc43)ccc12 [Example 460]	< 500	< 1000
Cn1c(=O)[nH]c2cc(/C=C3/c4ccccc4CCc4cc(F)ccc43)ccc21 [Example 461]	< 500	< 500
Cn1c(=O)[nH]c2cc(/C=C3\c4ccccc4CCc4cc(F)ccc43)ccc21 [Example 462]	< 500	< 1000
O=c1[nH]c2ccc(C=C3c4ccccc4CCc4cc(F)cc(F)c43)cc2[nH]1 [Example 463]	< 500	< 10000
CC(C)n1c(=O)[nH]c2cc(C=C3c4ccc(F)cc4CCc4cc(F)ccc43)ccc21 [Example 464]	< 500	< 10000
O=c1[nH]c2ccc(/C=C3/c4ccccc4CCc4cccc(Cl)c43)cc2[nH]1 [Example 465]	< 500	< 1000
O=c1[nH]c2ccc(/C=C3\c4ccccc4CCc4cccc(Cl)c43)cc2[nH]1 [Example 466]	< 500	< 1000
O=c1[nH]c2cc(C=C3c4ccccc4CCc4ccccc43)ccc2s1 [Example 467]	< 500	< 500
O=c1[nH]c2cc(/C=C3/c4ccccc4CCc4cc(F)ccc43)ccc2s1 [Example 468]	< 500	< 500
O=c1[nH]c2cc(/C=C3\c4ccccc4CCc4cc(F)ccc43)ccc2s1 [Example 469]	< 500	< 500
O=c1[nH]c2ccc(C=C3c4cccc(F)c4CCc4c(F)cccc43)cc2[nH]1 [Example 470]	< 500	< 10000

— patent US20060063759A1, “Tricyclic steroid hormone nuclear receptor modulators” (priority 2002, published 2006)
